Experimental data reported in patent US11091428B2 (HAPLOGEN GMBH, priority 2016, dated 2021).
Read-outs that look alike come from different tables or passages of the source.

Experiments:
PLA2G16 = target: T1, PLA2G16 (Homo sapiens, UniProt P53816); assay: Enzyme activity assay for PLA2G16 (Red/Green BODIPY PC-A2 fluorescence); assay type: biochemical; conditions: His-tagged PLA2G16, 4 min pre-incubation, 2 nM to 50 μM; read-out: IC50 values of the compounds determined in the enzyme activity assay for PLA2G16
T1 construct: Hexa-His (N); made in house; host or cells: E. coli BL21(DE3)
T1 sequence (P53816 1-162): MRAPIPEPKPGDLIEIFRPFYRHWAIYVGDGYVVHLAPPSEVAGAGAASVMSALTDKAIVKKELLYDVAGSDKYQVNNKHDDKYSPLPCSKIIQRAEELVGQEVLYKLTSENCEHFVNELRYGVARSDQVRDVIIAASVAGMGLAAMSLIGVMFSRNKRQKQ
In short: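 N-His-tagged human PLA2G16 from E. coli, Ni-NTA purified. Pre-incubated 4 min with compound (2 nM–50 μM final) in pH 8.5 Tris/NaCl buffer with 5 mM glutathione, then BODIPY PC-A2 in DOPC/DOPG/cholesterol vesicles added. Fluorescence (ex 480/em 530 nm) increase over 10 min taken as activity; IC50 by non-linear regression.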

[1] = tested on: picornaviruses (CVB1, HRV-A2, HRV-A23, EV-68); assay: Anti-picornavirus cytopathic effect (CPE) reduction assay on HeLa H1 cells; assay type: cell-based; conditions: Enterovirus B, HeLa H1 cells, 48 h, category from averaging the EC50 values from four picornaviruses (CVB1, HRV-A2, HRV-A23, EV68), read-out: EC50 values of the compounds determined in the anti-picornavirus assay
In short: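 HeLa H1 cells pre-treated 2 h with serially diluted compound in DMEM/2% FBS, then infected at an MOI giving full CPE in 2 days. After 48 h at 37° C, viability read by CellTiterBlue fluorescence (ex 560/em 590 nm), normalised to infected and uninfected vehicle controls; EC50 by non-linear regression, category from mean of four viruses.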

[2] = CVB1|EV68|HRVA2|HRVA23, HeLa H1, 48 h

SMILES | IC50 (PLA2G16) [µM] | EC50 ([1]; HeLa H1, 48 h) [µM] | EC50 [1, 2] [µM]
COC(=O)CNC(=O)C(=O)C(C)N(C=O)Cc1ccccc1 (centres unmarked) [FP 56, Methyl 2-[3-(N-benzylformamido)-2-oxobutanamido]acetate] | < 1 | > 10 | –
CC(C)C(C(=O)C(=O)NCC1CC1)N(C=O)CC1CCOCC1 (centres unmarked) [FP 34, N-(Cyclopropylmethyl)-4-methyl-3-{N-[(oxan-4-yl)methyl]formamido}-2-oxopentanamide] | < 1 | 1 to 10 | –
CC(C(=O)C(=O)NCc1cccc(Cl)c1)N(C)C(=O)c1ccccc1 (centres unmarked) [FP 160, N-[(3-Chlorophenyl)methyl]-3-(N-methyl-1-phenylformamido)-2-oxobutanamide] | < 1 | 1 to 10 | –
COc1ccccc1N(C=O)C(C)C(=O)C(=O)NC(C)C (centres unmarked) [FP 28, 3-[N-(2-Methoxyphenyl)formamido]-2-oxo-N-(propan-2-yl)butanamide] | < 1 | 1 to 10 | –
CC(=O)NCCCCCCNC(=O)C(=O)C1CCC(=O)N1Cc1ccccc1 (centres unmarked) [FP 328, 2-(1-Benzyl-5-oxopyrrolidin-2-yl)-N-(6-acetamidohexyl)-2-oxoacetamide] | < 1 | 1 to 10 | –
CC(C(=O)C(=O)NCC1CCCCC1)N(C=O)CC(F)(F)F (centres unmarked) [FP 50, N-(Cyclohexylmethyl)-2-oxo-3-[N-(2,2,2-trifluoroethyl)formamido]butanamide] | < 1 | < 1 | –
O=C(NCCCc1ccncc1)C(=O)C1CCC(=O)N1Cc1ccccc1 (centres unmarked) [FP 228, 2-(1-Benzyl-5-oxopyrrolidin-2-yl)-2-oxo-N-[3-(pyridin-4-yl)propyl]acetamide] | < 1 | 1 to 10 | –
CC(C)C(=O)N1CCC(NC(=O)C(=O)[C@H]2CCC(=O)N2Cc2ccccc2)CC1 [FP 315, 2-[(2R)-1-Benzyl-5-oxopyrrolidin-2-yl]-N-[1-(2-methylpropanoyl)piperidin-4-yl]-2-oxoacetamide] | < 1 | 1 to 10 | –
O=C(NC1CC1)C(=O)C1CCC(=O)N1Cc1ccccc1 (centres unmarked) | < 1 | – | 1 to 10
CC(C)[C@@H](C(=O)C(=O)NCC1CC1)N(C=O)CC(C)(C)C (single isomer, unassigned) [FP 33] | < 1 | 1 to 10 | –
Cc1ccc(S(=O)(=O)NC(C)C(=O)C(=O)NCC2CC2)cc1 (centres unmarked) [FP 189, N-(Cyclopropylmethyl)-3-(4-methylbenzenesulfonamido)-2-oxobutanamide] | < 1 | 1 to 10 | –
COc1ccccc1CNC(=O)C(=O)C(C)N(C=O)c1ccccc1OC (centres unmarked) [FP 95, 3-[N-(2-Methoxyphenyl)formamido]-N-[(2-methoxyphenyl)methyl]-2-oxobutanamide] | < 1 | 1 to 10 | –
CC(C)CNC(=O)C(=O)C(C)NC(=O)c1ccccc1 (centres unmarked) [FP 182, N-(2-Methylpropyl)-2-oxo-3-(phenylformamido)butanamide] | < 1 | > 10 | –
COc1ccccc1N(C(=O)C(C)C)C(C)C(=O)C(=O)NCc1cccc(Cl)c1 (centres unmarked) [FP 142, N-[(3-Chlorophenyl)methyl]-3-[N-(2-methoxyphenyl)-2-methylpropanamido]-2-oxobutanamide] | < 1 | 1 to 10 | –
O=C(NCC1CC1)C(=O)[C@H]1CCC(=O)N1Cc1ccccc1 [FP 224, 2-[(2R)-1-Benzyl-5-oxopyrrolidin-2-yl]-N-(cyclopropylmethyl)-2-oxoacetamide] | < 1 | < 1 | –
CCC1CC(=O)N(Cc2ccccc2)C1C(=O)C(=O)NC1CCOCC1 (centres unmarked) [FP 344, 2-(1-Benzyl-3-ethyl-5-oxopyrrolidin-2-yl)-N-(oxan-4-yl)-2-oxoacetamide] | < 1 | < 1 | –

SMILES | IC50 (PLA2G16) [µM] | EC50 ([1]; HeLa H1, 48 h) [µM] | EC50 [1, 2] [µM]
CC(C)CC(C(=O)C(=O)NCC1CC1)N(C=O)CC1CCOCC1 (centres unmarked) [FP 63, N-(Cyclopropylmethyl)-5-methyl-3-{N-[(oxan-4-yl)methyl]formamido}-2-oxohexanamide] | < 1 | < 1 | –
CC(C)NC(=O)[C@H]1C[C@H](NC(=O)C(=O)[C@H]2CCC(=O)N2Cc2ccccc2)C1 [FP 306, (1 r,3r)-3-{2-[(2R)-1-Benzyl-5-oxopyrrolidin-2-yl]-2-oxoacetamido}-N-(propan-2-yl)cyclobutane-1-carboxamide] | < 1 | 1 to 10 | –
CC(NC(=O)c1ccccc1)C(=O)C(=O)NCC1CCCC1 (centres unmarked) [FP 180, N-(Cyclopentylmethyl)-2-oxo-3-(phenylformamido)butanamide] | < 1 | 1 to 10 | –
O=CN(Cc1ccccc1)[C@@H](Cc1cn(C(c2ccccc2)(c2ccccc2)c2ccccc2)cn1)C(=O)C(=O)NCC1CCCCC1 [FP 116, (3S)-3-(N-Benzylformamido)-N-(cyclohexylmethyl)-2-oxo-4-[1-(triphenylmethyl)-1H-imidazol-4-yl]butanamide] | < 1 | < 1 | –
O=C(NCCF)C(=O)[C@H]1CCC(=O)N1Cc1ccccc1 [FP 282, 2-[(2R)-1-Benzyl-5-oxopyrrolidin-2-yl]-N-(2-fluoroethyl)-2-oxoacetamide] | < 1 | < 1 | –
O=C(NC1CC1)C(=O)C1N(Cc2ccccc2)C(=O)CC12CC2 (centres unmarked) [FP 345, 2-{5-Benzyl-6-oxo-5-azaspiro[2.4]heptan-4-yl}-N-cyclopropyl-2-oxoacetamide] | < 1 | < 1 | –
CC(C)NC(=O)C(=O)C(C)N(C=O)CC(C)(C)C (centres unmarked) [FP 29, 3-[N-(2,2-Dimethylpropyl)formamido]-2-oxo-N-(propan-2-yl)butanamide] | < 1 | 1 to 10 | –
O=CN(Cc1ccccc1)[C@@H](Cc1cn(C(c2ccccc2)(c2ccccc2)c2ccccc2)cn1)C(=O)C(=O)NCC1CC1 [FP 117, (3S)-3-(N-Benzylformamido)-N-(cyclopropylmethyl)-2-oxo-4-[1-(triphenylmethyl)-1H-imidazol-4-yl]butanamide] | < 1 | < 1 | –
CC(C)NC(=O)C(=O)C(C)OC1CCCCC1 (centres unmarked) [FP 125, 3-(Cyclohexyloxy)-2-oxo-N-(propan-2-yl)butanamide] | 1 to 10 | 1 to 10 | –
CC(C(=O)C(=O)NCCC1CCOCC1)N(C=O)C1CCCCC1 (centres unmarked) [FP 112, 3-(N-Cyclohexylformamido)-N-[2-(oxan-4-yl)ethyl]-2-oxobutanamide] | < 1 | 1 to 10 | –
Cc1csc(CN2C(=O)CCC2C(=O)C(=O)NCC2CCCC2)n1 (centres unmarked) | < 1 | – | < 1
CC(C)C(=O)N(C)C(C)C(=O)C(=O)NCC1CC1 (centres unmarked) [FP 151, N-(Cyclopropylmethyl)-3-(N,2-dimethylpropanamido)-2-oxobutanamide] | 1 to 10 | > 10 | –
COc1ccccc1N(C=O)C(C)C(=O)C(=O)NCCc1cccc(Cl)c1 (centres unmarked) [FP 97, N-[2-(3-Chlorophenyl)ethyl]-3-[N-(2-methoxyphenyl)formamido]-2-oxobutanamide] | < 1 | < 1 | –
O=C(NCCc1cnccn1)C(=O)C1CCC(=O)N1Cc1ccccc1 (centres unmarked) [FP 227, 2-(1-Benzyl-5-oxopyrrolidin-2-yl)-2-oxo-N-[2-(pyrazin-2-yl)ethyl]acetamide] | < 1 | 1 to 10 | –
CC(NS(=O)(=O)c1ccccc1Cl)C(=O)C(=O)NCC1CC1 (centres unmarked) [FP 191, 3-(2-Chlorobenzenesulfonamido)-N-(cyclopropylmethyl)-2-oxobutanamide] | < 1 | 1 to 10 | –
